Counter-ions that a name gives are not always drawn. Like-named read-outs stand apart in the source and are kept apart here.
Assays:
Male SD/TAC rats = assay: animal or person; format: in vivo, rat; settings: for response vs control in vivo at 3 µmol/kg / minimal effective dose / ED (max): Rattus norvegicus; for minimal effective dose: read-out: Lovest Dose at which increased diuresis is achieved nMol/kg. I.e. >1.5 SC; for ED (max): read-out: SC Dose at which max diuresis is achieved nMol/kg
male NMRI mice = settings: mouse, in vivo, iv; for dose at which the mice died after injection / time to death after injection: male, NMRI
mice = settings: mouse, in vivo, iv
in vivo = settings: male, Sprague-Dawley, rat
[1] = rat, in vivo

CC(C)[C@H]1CC[C@@H](N2CCC3(CC2)C(=O)N(CCCCCCCCCN2CN(c4ccccc4)C4(CCN([C@H]5CC[C@@H](C(C)C)CC5)CC4)C2=O)CN3c2ccccc2)CC1 [Compound 25, 1,9-bis-(cis-8-(4-isopropyl-cyclohexyl)-1-phenyl-1,3,8-triaza-spiro[4.5]decan-4-one-3-yl)-nonane]
response vs control in vivo at 3 µmol/kg (Male SD/TAC rats; po, read-out: PO max effect.): 250% | minimal effective dose (Male SD/TAC rats; sc): 0.01 µmol/kg | ED (max) (Male SD/TAC rats; sc): 1000 nmol/kg | response vs control in vivo at 3 µmol/kg (Male SD/TAC rats; sc, read-out: SC max effect.): 250% | Lovest Dose at which increased diuresis is achieved nMol/kg. I.e. >1.5 IV (Male SD/TAC rats; rat, in vivo): 10^−5 nMol/kg | Lovest Dose at which increased diuresis is achieved nMol/kg. I.e. >1.5 PO (Male SD/TAC rats; rat, in vivo, po): 10 nmol/kg | PO Dose at which max diuresis is achieved (Male SD/TAC rats; rat, in vivo, po): 1000 nmol/kg

CC(C)[C@H]1CC[C@@H](N2CCC3(CC2)C(=O)N(CCCNCCNCCNCCCNCCN)CN3c2ccccc2)CC1 [Compound 33, cis-8-(4-Isopropyl-cyclohexyl)-3-(4,7,10,14,17-pentaazaheptadecyl)-1-phenyl-1,3,8-triaza-spiro[4.5]decan-4-one]
response vs control in vivo at 3 µmol/kg (Male SD/TAC rats; po, read-out: PO max effect.): 160% | minimal effective dose (Male SD/TAC rats; sc): 0.0001 µmol/kg | ED (max) (Male SD/TAC rats; sc): 1000 nmol/kg | response vs control in vivo at 3 µmol/kg (Male SD/TAC rats; sc, read-out: SC max effect.): 330% | Lovest Dose at which increased diuresis is achieved nMol/kg. I.e. >1.5 PO (Male SD/TAC rats; rat, in vivo, po): 1000 nmol/kg | PO Dose at which max diuresis is achieved (Male SD/TAC rats; rat, in vivo, po): 1000 nmol/kg

CC(C)[C@H]1CC[C@@H](N2CCC3(CC2)C(=O)N(CCCCCCNCCNCCCNCCNCCN)CN3c2ccccc2)CC1 [Compound 34, cis-8-(4-Isopropyl-cyclohexyl)-3-(7,10,14,17,20-pentaazaeicosanyl)-1-phenyl-1,3,8-triaza-spiro[4.5]decan-4-one]
dose at which the mice died after injection (male NMRI mice): 2000 nmol/kg | time to death after injection (male NMRI mice): approximately 2 minutes | CNS grid shock* (Minimal effective dose nmol/kg) (male NMRI mice): 300 nmol/kg | gridshock response versus vehicle (male NMRI mice): No statistical significant difference | response vs control in vivo at 3 µmol/kg (Male SD/TAC rats; po, read-out: PO max effect.): 200% | minimal effective dose (Male SD/TAC rats; sc): 0.01 µmol/kg | ED (max) (Male SD/TAC rats; sc): 100 nmol/kg | response vs control in vivo at 3 µmol/kg (Male SD/TAC rats; sc, read-out: SC max effect.): 490% | Lovest Dose at which increased diuresis is achieved nMol/kg. I.e. >1.5 IV (Male SD/TAC rats; rat, in vivo): 0.0001 nmol/kg | Lovest Dose at which increased diuresis is achieved nMol/kg. I.e. >1.5 PO (Male SD/TAC rats; rat, in vivo, po): 0.1 nmol/kg | PO Dose at which max diuresis is achieved nMol/kg (Male SD/TAC rats; rat, in vivo, po): 0.1; 10 nMol/kg | CNS motility* (Minimal effective dose nmol/kg) (mice): 100 nmol/kg | dose with statistical significant decrease in locomotor activity during the first 15 minutes (mice): 1000 nmol/kg | locomotor activity / activity count during the first 30 minutes versus vehicle (mice): No statistical significant difference

CC(C)[C@H]1CC[C@@H](N2CCC3(CC2)C(=O)N(CCCN2CCCNCCNCCCNCC2)CN3c2ccccc2)CC1 [Compound 36, cis-8-(4-Isopropyl-cyclohexyl)-1-phenyl-3-[3-(1,4,8,11-tetraaza-cyclotetradec-1-yl)-propyl]-1,3,8-triaza-spiro[4.5]decan-4-one]
dose at which the mice died after injection (male NMRI mice): 2000 nmol/kg | time to death after injection (male NMRI mice): approximately 1 | CNS grid shock* (Minimal effective dose nmol/kg) (male NMRI mice): 1000 nmol/kg | response vs control in vivo at 3 µmol/kg (Male SD/TAC rats; po, read-out: PO max effect.): 240% | Lovest Dose at which increased diuresis is achieved nMol/kg. I.e. >1.5 IV (Male SD/TAC rats; rat, in vivo): 10 nmol/kg | Lovest Dose at which increased diuresis is achieved nMol/kg. I.e. >1.5 PO (Male SD/TAC rats; rat, in vivo, po): 1000 nmol/kg | PO Dose at which max diuresis is achieved (Male SD/TAC rats; rat, in vivo, po): 1000 nmol/kg | half-life (in vivo): 120 min | CNS motility* (Minimal effective dose nmol/kg) (mice): 100 nmol/kg

O=C(O)C(F)(F)F [TFA, Trifluoroacetic acid]
gridshock response versus vehicle (male NMRI mice): No statistical significant difference | locomotor activity / activity count during the first 30 minutes versus vehicle (mice): No statistical significant difference

cis and trans-3-(Methoxycarbonylmethyl-)-8-(4-isopropyl-cyclohexyl)-1-phenyl-1,3,8-triaza-spiro[4.5]decan-4-one [Compound 10]
Lovest Dose at which increased diuresis is achieved nMol/kg. I.e. >1.5 SC (Male SD/TAC rats; rat, in vivo, sc): 1000 nmol/kg | SC Dose at which max diuresis is achieved (Male SD/TAC rats; rat, in vivo, sc): 1000 nmol/kg | SC max effect. (Male SD/TAC rats; rat, in vivo, sc): 1.9

cis-(8-(4-Isopropyl-cyclohexyl)-1-phenyl-1,3,8-triaza-spiro[4.5]decan-4-one)-acetic acid [Compound 11]
gridshock response versus vehicle (male NMRI mice): No statistical significant difference | Lovest Dose at which increased diuresis is achieved nMol/kg. I.e. >1.5 IV (Male SD/TAC rats; rat, in vivo): 10 nmol/kg | Lovest Dose at which increased diuresis is achieved nMol/kg. I.e. >1.5 SC (Male SD/TAC rats; rat, in vivo, sc): 1000 nmol/kg | SC Dose at which max diuresis is achieved (Male SD/TAC rats; rat, in vivo, sc): 1000 nmol/kg | SC max effect. (Male SD/TAC rats; rat, in vivo, sc): 2.0 | oral availability (in words) [1]: orally available | CNS motility* (Minimal effective dose nmol/kg) (mice): >10000 nmol/kg | locomotor activity / activity count during the first 30 minutes versus vehicle (mice): No statistical significant difference

— patent US20080287478A1 (priority 2003, published 2008)
